From patent US6080791A, “Method of treating a viral condition by inhibiting membrane fusion” (priority 1992, dated 2000)
Read-outs that look alike come from different tables or passages of the source.

Legend:
[1] = target: hemagglutinin (BHA), fusion peptide exposure (Influenza A virus (A/X-31(H3N2)), UniProt P03438); format: biochemical, C22 / X31 influenza virus (H3N2); conditions: for inhibition in the SPA assay: 1 μM-1 mM
low pH BHA = test: SPA POST control (nonspecific quenching); parameters: species or system C22 / X31 influenza virus (H3N2)
Procedure: The compounds being screened by SPA are present during scintillation counting. Some of the chemicals, particularly those that are highly colored, quench the detection of radioactivity. A control ("POST") distinguishes whether apparent inhibition arises from inhibition of the conformational change or from nonspecific effects. The test compound is added to a sample of BHA that had previously been acidified and reneutralized. The mixture is then precipitated as usual. Since the BHA treated in this manner is known to be in the low pH conformation, a reduction in measurable cpm compared to controls with ligand omitted proves the compound interferes with the detection system.
^3 H-Leu BHA was diluted to 10,000 cpm (counts per minute) per 200 μl in MSSH buffer (10 mM HEPES, 10 mM MES, 10 mM succinate, 0.10 M NaCl, pH 7.0) containing 0.1% NP40. Protein was incubated with the specified concentration of trial compound for 25 minutes at RT. The same volume of solvent used to dissolve the compound was added to control samples and the final concentration of DMSO in all solutions was 0.67% v/v. A predetermined amount of 1N HAc was added to bring the reactions to the appropriate pH (usually pH 5.0). Following a 5 minute (unless specified otherwise) incubation at RT, reactions were reneutralized with 1N NaOH. For POST controls, compounds were added to the appropriate concentration after reneutralization. 200 μL aliquots of the protein solution were added to scintillation vials containing 100 μl protein A-SPA beads (Amersham), 5% fetal bovine serum (FBS), and antibody. Vials were incubated overnight at RT with constant shaking. Each reaction used 10 μl of fusion peptide antiserum diluted 1:10 with 50% glycerol. Cpm were detected in a Beckman LS3801 scintillation counter without addition of liquid scintillant.
Apparent inhibition due to nonspecific effects was quantitated from the POST controls with the equation:
observed cpm=true cpm*quench factor

[2] = system: hemagglutinin-mediated hemolysis of human red blood cells; test: Hemolysis (HEM) assay; format: cell-based, C22 influenza virus; human red blood cells
hemoglobin = test: Hb control (quenching of OD570 of hemoglobin); parameters: species or system human
C22 virus in MDCK2 cells [3] = system: C22 virus in MDCK2 cells
[4] = target: BHA (Influenza A virus (A/X-31(H3N2)), UniProt P03438); format: biochemical, C22 / X31 influenza virus (H3N2); conditions: 1 mM
BHA (Influenza A virus (A/X-31(H3N2)), UniProt P03438), sequence (P03438 whole entry, looked up): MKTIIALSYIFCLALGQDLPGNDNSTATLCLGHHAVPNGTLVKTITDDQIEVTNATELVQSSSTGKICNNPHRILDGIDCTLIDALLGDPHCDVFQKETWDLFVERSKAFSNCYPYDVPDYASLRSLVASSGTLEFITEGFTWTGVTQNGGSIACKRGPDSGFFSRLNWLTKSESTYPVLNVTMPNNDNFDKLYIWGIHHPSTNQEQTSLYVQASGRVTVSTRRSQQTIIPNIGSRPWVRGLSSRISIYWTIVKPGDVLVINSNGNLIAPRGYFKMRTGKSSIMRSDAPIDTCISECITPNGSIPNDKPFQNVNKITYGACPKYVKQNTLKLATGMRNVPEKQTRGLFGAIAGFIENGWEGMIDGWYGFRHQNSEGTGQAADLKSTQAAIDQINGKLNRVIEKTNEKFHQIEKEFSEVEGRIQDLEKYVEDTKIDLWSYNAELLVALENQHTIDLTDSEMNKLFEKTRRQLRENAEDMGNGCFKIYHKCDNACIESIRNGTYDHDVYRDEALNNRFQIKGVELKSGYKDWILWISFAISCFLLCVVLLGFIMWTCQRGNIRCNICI

[5] = target: C22 BHA (Influenza A virus (A/X-31(H3N2)), UniProt P03438); format: biochemical
C22 BHA (Influenza A virus (A/X-31(H3N2)), UniProt P03438), sequence (P03438 whole entry, looked up): as above

in vitro = conditions: dog, mdck
Procedure: The ELISA-based assay described below (EIA antiviral assay) was used to measure antiviral activity. Cell viability was measured in parallel to distinguish inhibition of viral replication from toxicity.
Infections of MDCK2 cells with virus, compounds, and DMSO were set up identically as for the EIA assay. Following the 15 hour incubation, test compounds were washed away with PBS. 50 μl of MDCK2 growth media and 25 μl 2 mg/ml 3-(4,5-dimethylthiazol-2-yl)-2,5-diphenyl tetrazolium bromide (Sigma) in PBS were added to each well. Plates were returned to 37° C., 5% CO2 for 4 hrs. Crystals were broken up by vigorous mixing following addition of 80 μl isopropanol/0.04 N HCl. After incubation for 30 mins at RT, OD570 was read on an ELISA reader. % Inhibition is the % reduction of OD570 in the wells infected with compound compared to otherwise identical samples with compound omitted.

[6] = system: influenza-mediated syncytia formation, CV-1 cells
C22 virus in MDCK2 cells [7] = test: microbe, parasite or virus in culture; conditions: unidentified influenza virus
[8] = Procedure: Synthesis, purification, and characterization of selected compounds are summarized below. Stock solutions were prepared fresh daily. All solutions of the test compounds were prepared in dimethyl-sulfoxide (DMSO).
HIV-1 fusion protein = HIV-1 fusion protein (Human immunodeficiency virus type 1 group M subtype B, UniProt P04578); test: Inhibition of fusion mediated by the HIV-1 fusion protein; format: cell-based
[9] = unidentified influenza virus, Erythrocyte, Table 7, read-out: HEM, negative log of IC50 (converted)
[10] = unidentified influenza virus, Erythrocyte, 0.25 h, Table 6, 10^-3 = 1 mM, low pH 15 minutes, read-out: IC50 hemolysis
[11] = unidentified influenza virus, Erythrocyte, log conc -3 (M), read-out: hemolysis % ↓ OD
[12] = MDCK2, 15 h, read-out: infectivity % inhibition
[13] = MDCK2, read-out: IC50 infectivity
[14] = MDCK2, read-out: INF, negative log of IC50 (converted)
[15] = unidentified influenza virus, Erythrocyte, log conc -4 (M), read-out: hemolysis % ↓ OD

hemagglutinin (BHA), fusion peptide exposure (Influenza A virus (A/X-31(H3N2)), UniProt P03438), sequence (P03438 whole entry, looked up, the tested form may be a part): as the sequence (P03438 whole entry, looked up) above

Row | Compound | inhibition of hemolytic activity [2] | Hb control % ↓ OD (hemoglobin; log conc -3 (M)) [%] | IC50 [2, 9] [µM] | infectivity in Table 6 (C22 virus in MDCK2 cells [3]) | INF, words (Table 7) (C22 virus in MDCK2 cells [3]) | cytotoxicity at 15 h, 1 µM (in vitro) [%] | cytotoxicity at 15 h, 10 µM (in vitro) [%] | cytotoxicity at 15 h, 100 µM (in vitro) [%] | inhibition at 1000 µM [2, 11] [%] | syncytia, Table 6 [6] | inhibition at 1 µM (C22 virus in MDCK2 cells [7]; [12]) [%] | inhibition at 10 µM (C22 virus in MDCK2 cells [7]; [12]) [%] | inhibition at 100 µM (C22 virus in MDCK2 cells [7]; [12]) [%] | IC50 (C22 virus in MDCK2 cells [7]; [14]) [µM] | solubility at 1 mM [8] | further results
1 | 5,8-dihydro-5,8-methano-1,4-naphthalenediol [Compound 83] | inhibits HA-mediated hemolysis | 16.5 ± 2.1 |  |  |  |  |  |  |  |  |  |  |  |  |  | SPA activity [1]: significant activity; % inhibition, POST (Table 1) (low pH BHA; 1 mM, POST control): 2.1%; hemolysis % ↓ OD ([2]; log conc -3 (M), 1000 µM): 67.0 ± 15.1%; hemolysis % ↓ OD ([2]; log conc -4 (M), 100 µM): 17.9 ± 20.0%; hemolysis % ↓ OD ([2]; log conc -5 (M), 10 µM): 11.3 ± 10.3%; infectivity % inhibition (C22 virus in MDCK2 cells [3]; log conc -3 (M)): 51.1 ± 28.3%; infectivity % inhibition (C22 virus in MDCK2 cells [3]; log conc -4 (M)): 33.1 ± 20.2%; infectivity % inhibition (C22 virus in MDCK2 cells [3]; log conc -5 (M)): 8.7 ± 6.7%; infectivity % inhibition (C22 virus in MDCK2 cells [3]; log conc -6 (M)): 12.3 ± 2.5%
2 | O=C1C=CC(=O)C2C3C=CC(C3)C12 (stereo not shown) [Compound 83K, 4A,5,8,8A-tetrahydro-5,8-methano-1,4-naphthoguinone] | apparently inhibited hemolytic activity |  | 100 to 1000 | toxic | toxic | 3.4 ± 10.5 | 7.3 ± 8.9 | 46.4 ± 15.1 |  |  |  |  |  |  |  | % inhibition, sample (Table 1) [1]: 49.1 ± 15.0%; inhibition at 10^-5 M ([1]; 10^-5 M): negligible inhibition; Inhibition of the POST controls (low pH BHA; 10 mM): 26.4%; Inhibition of the POST controls (low pH BHA; all other concentrations (below 10 mM)): ≤ 4%; % inhibition, POST control (low pH BHA; log conc -3 (M)): -5.3 ± 2.1%; % inhibition, POST control (low pH BHA; log conc -4 (M)): 3.0%; % inhibition, POST control (low pH BHA; log conc -5 (M)): 0.8 ± 12.7%; % inhibition, POST control (low pH BHA; log conc -6 (M)): -6.2%; reversibility of inhibition by dilution [4]: reversible by dilution; inhibition at low pH ([5]; 10 seconds at pH 5.0): 73%; inhibition at low pH ([5]; 10 minutes at pH 5.0): 43%; fraction of its maximal inhibition of fusion peptide exposure maintained ([5]; after 10 minutes at pH 5.0, C22 BHA): 60%; cytotoxicity at 15 h, 1000 µM (in vitro): 92.9 ± 7.4%
3 | Cc1c(O)ccc(O)c1C [Compound 99, 2,3-dimethylhydroquinone] | did not | 27.8 | > 1000 |  |  | -4.2 ± 9 | -10.1 ± 10 | 99.4 ± 0.4 | 28.7 | toxic | 26.2 ± 8.6 | 35.9 ± 5.2 | 114 ± 12 | > 10 |  | IC50 [2, 10]: > 1000 µM; IC50 (C22 virus in MDCK2 cells [7]; [13]): > 10 µM
4 | Oc1ccc(Cl)c2ccccc12 [Compound 101, 4-chloro-1-naphthol] |  | 93.0 |  |  |  |  |  | 97.4 | 112 |  |  |  |  |  | only partially soluble at 1 mM | inhibition in the SPA assay [1]: showed no inhibition; activity note in Table 7 [1]: inactive
5 | O=C1c2ccccc2C(=O)c2c(O)ccc(O)c21 [Compound 102, quinizarin] |  |  |  |  |  |  |  |  |  |  |  |  |  |  | only partially soluble at 1 mM | inhibition in the SPA assay [1]: showed no inhibition; activity note in Table 7 [1]: inactive
6 | Oc1ccc(O)c(-c2ccccc2)c1 [Compound 105, phenylhydroquinone] |  |  |  | toxic | toxic |  |  | 100 |  |  |  |  |  |  | only partially soluble at 1 mM | 
7 | COc1ccc(O)c2ccccc12 [Compound 107, 4-methoxy-1-naphthol] |  | 92.5 |  | toxic | toxic |  |  | 96.9 | 104 |  |  |  |  |  | only partially soluble at 1 mM | hemolysis column of Table 6, words ([2]; Table 6): quench; HEM, words (Table 7) ([2]; Table 7): quench; IC50 (HIV-1 fusion protein): 50 µM
8 | Oc1ccc(O)c2ccccc12 [Compound 110, 1,4-dihydroxynaphthalene] |  |  |  |  |  | 5 ± 12.5 | 19.2 ± 15.6 | 98.3 ± 1.2 |  |  | -9.8 ± 0.6 | 61.1 ± 50.8 | 91.9 ± 11.5 |  | only partially soluble at 1 mM | cytotoxicity at 15 h, 1000 µM (in vitro): 96.9 ± 0.4%; inhibition at 1000 µM (C22 virus in MDCK2 cells [7]; [12]): 102%
9 | Oc1ccc(O)c2c1C1CCC2C1 [Compound 111, 3',6'-dihydroxybenzonorbornane] |  | 64.9 ± 0.5 | 100 to 1000 |  |  | 1 ± 5.8 | -1.6 ± 0.8 | 41 ± 17 | 36.7 ± 0.6 | morph | 21.7 ± 4.9 | 57.4 ± 25.2 | 102 ± 10.6 | 10 |  | activity rank among compounds tested [1]: most active; % inhibition, POST control (low pH BHA; log conc -3 (M)): 13.3%; % inhibition, POST control (low pH BHA; log conc -4 (M)): 9.5%; inhibition at 100 µM [2, 15]: -6.9 ± 9.3%; Hb control % ↓ OD (hemoglobin; log conc -4 (M)): 40.4 ± 1.3%; IC50 (C22 virus in MDCK2 cells [7]; [13]): 10 µM
10 | O=c1[nH]c(=O)n(O)c2nc[nH]c12 [Compound 113, xanthine 3-N-oxide] |  |  |  |  |  |  |  |  |  |  |  |  |  |  |  | solubility in DMSO ([8]; DMSO): insoluble in DMSO
11 | O=C1C=CC(=O)c2cc3ccccc3cc21 [Compound 114, 1,4-anthraquinone] |  |  |  | toxic | toxic | -4.3 ± 3.3 | 53.7 ± 2.1 | 102 |  | toxic | 0.2 ± 0.2 | 92.3 ± 12.7 |  |  |  | 
12 | Cc1cc(O)c(C)cc1O [Compound 116, 2,5-dimethylhydroquinone] | did not | 44.0 | > 1000 |  |  | 3.6 ± 4.5 | -9.4 ± 5 | -23.6 ± 5 | 17.3 | morph | 18.8 ± 1.7 | 42.8 ± 4.7 | 78.1 ± 10 | 10 to 100 |  | SPA activity [1]: inactive in the SPA; IC50 [2, 10]: > 1000 µM; inhibition at 100 µM [2, 15]: 7.7%; Hb control % ↓ OD (hemoglobin; log conc -4 (M)): 31.6%; infectivity inhibition (C22 virus in MDCK2 cells [3]): inhibited infectivity
13 | CC(C)(C)c1cc(O)ccc1O [Compound 117, tert-butylhydroquinone] | apparently inhibited hemolytic activity | 17.8 | 100 |  |  | -8.4 ± 7.6 | -13.7 ± 2.8 | -26.1 ± 3.3 | 116 |  | 7.5 ± 0.1 | 22.2 ± 13.2 | 53.7 ± 26.4 | 10 to 100 |  | activity rank among compounds tested [1]: most active; % inhibition, POST control (low pH BHA; log conc -3 (M)): -3.4%; % inhibition, POST control (low pH BHA; log conc -4 (M)): 2.9%; % inhibition, POST control (low pH BHA; log conc -5 (M)): 9.1%; % inhibition, POST control (low pH BHA; log conc -6 (M)): 4.7%; IC50 [2, 10]: 100 µM; inhibition at 100 µM [2, 15]: 31.6 ± 6.9%; inhibition at 10 µM ([2]; unidentified influenza virus, Erythrocyte, log conc -5 (M), read-out: hemolysis % ↓ OD): 13.9%; Hb control % ↓ OD (hemoglobin; log conc -4 (M)): 9.9 ± 2.8%; Hb control % ↓ OD (hemoglobin; log conc -5 (M)): 7.9%; inhibition of syncytia formation ([6]; 1 μM): Significant inhibition was not observed; inhibition of syncytia formation ([6]; 10 μM): completely abolished the ability of the virus to induce syncytia
